Assay results: patent US12201610B2, “Compositions comprising aticaprant” (Janssen Pharmaceuticals, Inc., priority 2022, dated 2025)

Test: GVS characterization of Form III
Type: physicochemical
Settings: at 90% RH

GVS max uptake: 0.4% max uptake at 90% RH
Structure (SMILES): Cc1cc(C)cc([C@@H]2CCCN2Cc2ccc(Oc3ccc(C(N)=O)cc3F)cc2)c1 [Form III]
